Experimental data from ChEMBL document CHEMBL3588759, “Structure-based design, synthesis and evaluation in vitro of arylnaphthyridinones, arylpyridopyrimidinones and their tetrahydro derivatives as inhibitors of the tankyrases” (Bioorg Med Chem, 2015).

Assays:
[1] = Antiproliferative activity against human FEK4 cells
[2] = target: T1, Poly [ADP-ribose] polymerase tankyrase-1 (Homo sapiens, UniProt O95271); assay: Inhibition of human TNKS1 catalytic activity
T1 sequence (O95271 whole entry): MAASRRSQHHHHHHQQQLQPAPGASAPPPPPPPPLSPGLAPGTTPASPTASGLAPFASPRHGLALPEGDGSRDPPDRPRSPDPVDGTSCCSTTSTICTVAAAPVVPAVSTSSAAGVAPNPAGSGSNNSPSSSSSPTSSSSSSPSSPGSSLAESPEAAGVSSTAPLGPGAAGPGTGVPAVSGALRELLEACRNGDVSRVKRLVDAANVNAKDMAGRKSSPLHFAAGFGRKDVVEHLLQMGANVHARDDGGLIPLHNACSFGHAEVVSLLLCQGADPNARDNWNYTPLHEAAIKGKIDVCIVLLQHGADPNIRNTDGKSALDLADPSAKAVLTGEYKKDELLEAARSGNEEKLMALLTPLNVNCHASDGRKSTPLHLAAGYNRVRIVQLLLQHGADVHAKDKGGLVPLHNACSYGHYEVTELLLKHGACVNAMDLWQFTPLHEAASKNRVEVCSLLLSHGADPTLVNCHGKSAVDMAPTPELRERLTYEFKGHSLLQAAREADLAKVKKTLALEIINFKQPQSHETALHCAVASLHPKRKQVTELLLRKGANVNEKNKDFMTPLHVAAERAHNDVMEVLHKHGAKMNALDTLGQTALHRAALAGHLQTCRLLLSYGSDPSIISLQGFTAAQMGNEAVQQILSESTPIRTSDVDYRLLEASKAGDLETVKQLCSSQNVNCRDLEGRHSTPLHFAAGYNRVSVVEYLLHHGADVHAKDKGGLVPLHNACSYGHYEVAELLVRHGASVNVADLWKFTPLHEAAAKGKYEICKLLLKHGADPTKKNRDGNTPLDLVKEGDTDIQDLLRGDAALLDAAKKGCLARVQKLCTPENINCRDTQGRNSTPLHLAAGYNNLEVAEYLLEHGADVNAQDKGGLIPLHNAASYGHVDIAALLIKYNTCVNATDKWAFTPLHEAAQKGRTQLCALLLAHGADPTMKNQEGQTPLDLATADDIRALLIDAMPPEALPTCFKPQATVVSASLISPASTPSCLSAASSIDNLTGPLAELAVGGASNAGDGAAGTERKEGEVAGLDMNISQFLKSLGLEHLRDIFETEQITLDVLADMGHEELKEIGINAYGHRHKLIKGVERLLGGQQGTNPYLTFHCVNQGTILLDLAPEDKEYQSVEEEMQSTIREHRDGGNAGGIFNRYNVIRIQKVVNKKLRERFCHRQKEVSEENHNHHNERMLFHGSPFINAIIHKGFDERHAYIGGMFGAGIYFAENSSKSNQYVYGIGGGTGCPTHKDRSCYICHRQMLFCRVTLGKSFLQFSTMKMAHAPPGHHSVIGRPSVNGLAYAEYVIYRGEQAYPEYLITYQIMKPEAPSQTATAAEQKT

HT-29 = assay: Antiproliferative activity against human HT-29 cells
[3] = target: T2, Poly [ADP-ribose] polymerase tankyrase-2 (Homo sapiens, UniProt Q9H2K2); assay: Inhibition of human TNKS2 catalytic activity
T2 sequence (Q9H2K2 whole entry): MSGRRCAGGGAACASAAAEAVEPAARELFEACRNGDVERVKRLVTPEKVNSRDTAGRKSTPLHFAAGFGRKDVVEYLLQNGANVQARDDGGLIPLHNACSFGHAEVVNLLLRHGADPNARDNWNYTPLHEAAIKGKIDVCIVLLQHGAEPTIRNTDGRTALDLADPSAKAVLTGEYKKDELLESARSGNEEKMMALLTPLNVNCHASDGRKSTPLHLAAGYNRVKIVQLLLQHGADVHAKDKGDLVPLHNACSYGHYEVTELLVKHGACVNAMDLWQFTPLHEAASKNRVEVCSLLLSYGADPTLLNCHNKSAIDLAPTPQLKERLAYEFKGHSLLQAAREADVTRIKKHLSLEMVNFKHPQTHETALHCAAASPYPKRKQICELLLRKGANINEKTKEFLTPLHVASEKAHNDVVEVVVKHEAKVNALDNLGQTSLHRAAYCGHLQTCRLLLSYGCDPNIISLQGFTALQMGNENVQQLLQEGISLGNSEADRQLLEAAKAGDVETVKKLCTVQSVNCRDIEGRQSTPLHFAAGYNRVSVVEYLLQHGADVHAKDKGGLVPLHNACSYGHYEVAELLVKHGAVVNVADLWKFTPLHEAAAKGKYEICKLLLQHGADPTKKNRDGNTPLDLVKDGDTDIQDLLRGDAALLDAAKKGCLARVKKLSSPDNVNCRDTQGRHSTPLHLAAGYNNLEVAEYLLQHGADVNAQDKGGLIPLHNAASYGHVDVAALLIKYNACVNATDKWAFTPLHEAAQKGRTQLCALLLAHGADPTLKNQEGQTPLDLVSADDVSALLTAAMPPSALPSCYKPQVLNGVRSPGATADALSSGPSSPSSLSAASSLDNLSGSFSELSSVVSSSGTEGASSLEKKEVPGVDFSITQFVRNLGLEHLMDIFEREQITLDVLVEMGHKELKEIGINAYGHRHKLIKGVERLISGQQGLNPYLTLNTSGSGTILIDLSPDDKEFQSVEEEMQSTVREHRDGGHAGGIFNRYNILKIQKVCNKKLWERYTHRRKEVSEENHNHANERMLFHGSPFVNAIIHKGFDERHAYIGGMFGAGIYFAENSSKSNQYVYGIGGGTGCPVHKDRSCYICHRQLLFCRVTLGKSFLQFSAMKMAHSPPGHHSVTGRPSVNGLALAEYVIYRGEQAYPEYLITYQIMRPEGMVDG

[4] = target: Poly [ADP-ribose] polymerase 1 (Homo sapiens, UniProt P09874); assay: Inhibition of human PARP1
Chain of Poly [ADP-ribose] polymerase 1 (P09874 whole entry): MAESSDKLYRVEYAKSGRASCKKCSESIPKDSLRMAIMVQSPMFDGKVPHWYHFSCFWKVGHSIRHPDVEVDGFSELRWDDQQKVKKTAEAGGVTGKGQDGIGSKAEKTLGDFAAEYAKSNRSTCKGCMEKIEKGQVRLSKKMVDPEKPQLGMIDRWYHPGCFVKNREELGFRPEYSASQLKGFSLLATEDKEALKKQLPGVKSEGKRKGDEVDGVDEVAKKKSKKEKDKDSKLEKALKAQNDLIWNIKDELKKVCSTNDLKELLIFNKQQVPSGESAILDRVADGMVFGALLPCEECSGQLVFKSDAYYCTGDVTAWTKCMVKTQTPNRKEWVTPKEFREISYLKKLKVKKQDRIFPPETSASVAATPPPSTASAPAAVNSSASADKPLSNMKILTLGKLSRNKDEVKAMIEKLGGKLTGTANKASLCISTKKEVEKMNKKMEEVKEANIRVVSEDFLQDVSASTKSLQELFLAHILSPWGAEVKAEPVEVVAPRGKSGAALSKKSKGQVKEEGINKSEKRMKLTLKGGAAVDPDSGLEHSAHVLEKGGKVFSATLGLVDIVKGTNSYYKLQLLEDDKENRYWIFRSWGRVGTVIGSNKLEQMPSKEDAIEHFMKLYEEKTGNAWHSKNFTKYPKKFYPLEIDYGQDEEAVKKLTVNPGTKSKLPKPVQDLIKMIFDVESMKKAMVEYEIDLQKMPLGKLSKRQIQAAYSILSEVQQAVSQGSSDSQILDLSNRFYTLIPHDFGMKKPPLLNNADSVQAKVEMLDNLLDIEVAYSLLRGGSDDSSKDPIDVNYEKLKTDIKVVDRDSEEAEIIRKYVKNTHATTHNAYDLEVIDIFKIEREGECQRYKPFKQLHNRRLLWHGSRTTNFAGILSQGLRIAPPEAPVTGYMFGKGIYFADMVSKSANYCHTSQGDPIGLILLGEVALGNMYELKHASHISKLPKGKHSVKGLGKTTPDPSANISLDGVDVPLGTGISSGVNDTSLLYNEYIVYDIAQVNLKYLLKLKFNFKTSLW

Row | SMILES | IC50 [1] [µM] | IC50 [2] [µM] | IC50 (HT-29) [µM] | IC50 [3] [µM] | IC50 [4] [µM]
1 | Cc1ccc(-c2cc3cnccc3c(=O)[nH]2)cc1 | > 500 | 6.2 | 157 | – | –
2 | O=c1[nH]c(-c2ccccc2)cc2ncccc12 | > 500 | 5 | > 500 | – | –
3 | CN1CCCc2c1cc(-c1ccc(Br)cc1)[nH]c2=O | > 500 | 0.0061 | 26 | 0.423 | 2
4 | O=c1[nH]c(-c2ccccc2)cc2ccncc12 | > 500 | 1.3 | > 500 | – | –
5 | COc1ccc(-c2cc3c(c(=O)[nH]2)CCCN3C)cc1 | > 200 | 0.0011 | > 200 | – | –
6 | CN1CCCc2c1cc(-c1ccc(Cl)cc1)[nH]c2=O | > 500 | 0.021 | 26 | – | –
7 | CN1CCCc2c1cc(-c1ccc(C(F)(F)F)cc1)[nH]c2=O | > 200 | 0.0015 | > 200 | – | –
8 | CN1CCCc2c1cc(-c1ccccc1)[nH]c2=O | > 500 | 0.097 | > 500 | – | –
